Test results published in patent publication US10500222B2, “Compositions and methods relating to treatment of infection” (Wayne State University, priority 2015, dated 2019).
Values after ≈ are worked out from the molar mass of the structure shown. “Also recorded” adds a separate entry of the source.

Columns and labels:
P. aeruginosa ATCC 19660 = experiment: Bacterial growth and Minimum Inhibitory Concentration (MIC), strain 19660; assay type: cell-based, Pseudomonas aeruginosa; settings: for absorbance values of bacterial cultures: vs growth control
[1] = tested on: mRNA levels in P. aeruginosa KEI 1025 infected cornea; experiment: Real time RT-PCR of cornea, KEI 1025 infection; assay type: in vivo, C57BL/6 (B6) mice
Experimental: (§1) The left eyes of B6 mice (n=5/group/time) were injected with 5 μl of 2 μg/μl glycyrrhizin (GLY) (Sigma-Aldrich, St. Louis, Mo.) or PBS (control) subconjunctivally, one day before infection. Similar treatment was done using carbenoxolone (CBX) (Sigma-Aldrich, St. Louis, Mo.). All mice were injected intraperitoneally (IP) at 1 and 3 days p.i. with 100 μl of GLY (2 μg/μl) or CBX (1 μg/μl). PBS served as control for all these experiments. In a separate similar experiment mice were treated one day before infection with GLY subconjunctivally and injected intraperitoneally (i.p.) with GLY plus recombinant (r) HMGB1 (1 μg/100 μl) or GLY plus PBS. IP injections were similarly given at 1 and 3 days p.i. In an additional experiment, KEI 1025 infected B6 mice were treated with 5 μl of 2 μg/μl GLY subconjunctivally at 6 hours p.i. and injected intraperitoneally at 1 and 3 days p.i. with 100 μl of GLY (2 μg/μl).
KEI 1025 or ATCC strain 19660 infected GLY or PBS treated mice were sacrificed at 5 days p.i. and the normal, contralateral (uninfected) and infected cornea was harvested. For each cornea, total RNA was isolated (RNA STAT-60™; Tel-Test, Friendswood, Tex.) according to the manufacturer's instructions. Upon spectrophotometric quantification at 260 nm, 1 μg of each RNA sample was reverse transcribed using Moloney-murine leukemia virus (M-MLV) reverse transcriptase (Invitrogen, Carlsbad, Calif.) to produce a cDNA template for the PCR reaction. cDNA products were diluted 1:25 with diethylpyrocarbonate (DEPC)-treated water. A 2 μl aliquot of diluted cDNA was used for the real-time RT-PCR reaction with Real-Time SYBR® Green/Fluorescein PCR Master Mix (Bio-Rad) and primer concentrations of 10 μM (total 10 μl reaction volume). After a pre-programmed hot start cycle (3 min at 95° C.), the parameters used for PCR amplification were: 15 sec at 95° C. and 60 sec at 60° C. with the cycles repeated 45 times. Optimal conditions for PCR amplification of cDNA were established using routine methods. mRNA levels of HMGB1, RAGE, IL-1β, TLR2, TLR4, CXCL2, TNF-α, NLR family pyrin domain containing 3 (NLRP3), NLR family CARD domain containing 4 (NLRC4), IL-12, TGF-β, IL-10, single Ig IL-1-related receptor (SIGIRR) and interleukin 1 receptor-like 1 (ST2) were tested by real-time RT-PCR (CFX Connect™ Real-Time PCR Detection System; Bio-Rad, Richmond, Calif.). The fold differences in gene expression were calculated after normalization to β-actin and expressed as the relative mRNA concentration+SEM.

[2] = tested on: P. aeruginosa KEI 1025 infected cornea; experiment: Histopathology of eyes infected with KEI 1025; assay type: in vivo, C57BL/6 (B6) mice; settings: vs PBS
Experimental: as §1
Whole eyes infected with KEI 1025 (n=3/group/time) were enucleated from GLY or PBS treated B6 mice at 3 and 5 days p.i. Eyes were immersed in PBS, rinsed, and fixed in 1% osmium tetroxide, 2.5% glutaraldehyde, and 0.2 M Sorenson's phosphate buffer (pH 7.4) (1:1:1) at 4° C. for 3 h. Eyes were rinsed with 0.1 M phosphate buffer, dehydrated in graded ethanols and propylene oxide, and then infiltrated and embedded in Epon-araldite. Thick sections (1.5 μm) were cut, stained with Richardson's stain, observed, and photographed (Leica DM4000B, Leica Microsystems, Inc.).
The left eyes of B6 mice (n=5/group/time) were infected as above with Pseudomonas KEI 1025 strain. These infected B6 mice were treated by topical administration of GLY. Pseudomonas aeruginosa infected left cornea received 5 μL of GLY (20 μg/μL) topically beginning 6 (or 8) hours post infection and continued 2× daily for days 1-4 post infection.

[3] = KEI 1025, pretreatment subconj. + IP, infected cornea 5 days p.i., vs PBS

## CC1(C)[C@@H](O[C@H]2O[C@H](C(=O)O)[C@@H](O)[C@H](O)[C@H]2O[C@@H]2O[C@H](C(=O)O)[C@@H](O)[C@H](O)[C@H]2O)CC[C@]2(C)[C@H]3C(=O)C=C4[C@@H]5C[C@@](C)(C(=O)O)CC[C@]5(C)CC[C@@]4(C)[C@]3(C)CC[C@@H]12 [GLY, glycyrrhizin]
P. aeruginosa ATCC 19660; Pseudomonas aeruginosa, ATCC19660, strain 19660, 50% decrease in absorbance at 540 nm, 37° C., 18 h
  MIC50: 20 mg/mL (≈ 24.3 mM)
P. aeruginosa ATCC 19660; Pseudomonas aeruginosa, ATCC19660, strain 19660, 90% decrease in absorbance at 540 nm, 37° C., 18 h
  MIC90: 40 mg/mL (≈ 48.6 mM)
P. aeruginosa ATCC 19660; cytotoxic strains
  Minimum Inhibitory Concentration 50 (MIC50): 20 milligrams/milliliter
P. aeruginosa ATCC 19660; strain 19660, grown with 10 mg/ml GLY
  absorbance values of bacterial cultures: significantly reduced
P. aeruginosa ATCC 19660; strain 19660, grown with 20 mg/ml GLY
  absorbance values of bacterial cultures: significantly reduced
P. aeruginosa ATCC 19660; strain 19660, grown with 40 mg/ml GLY
  absorbance values of bacterial cultures: significantly reduced
[1]; [3]
  CXCL2 mRNA levels: reduced
  HMGB1 mRNA levels: significantly reduced; also recorded: significantly decreased
  IL-1β mRNA levels: significantly reduced
  IL-10 mRNA levels: reduced
  IL-12 mRNA levels: only GLY reduced
  NLRC4 mRNA levels: only GLY reduced
  NLRP3 mRNA levels: reduced
  RAGE mRNA levels: reduced RAGE mRNA levels (FIG. 2B) when compared with PBS but not significantly
  ST2 mRNA levels: reduced
  TGF-β mRNA levels: reduced
  TLR2 mRNA levels: significantly reduced
  TLR4 mRNA: reduced
  TNF-α mRNA levels: reduced by both GLY and CBX, but only GLY (p<0.01) was significant
[1]; normal (uninfected) corneas, among PBS, CBX, GLY groups
  mRNA levels of the other molecules tested: no differences
[1]; normal (uninfected) corneas, vs PBS
  RAGE mRNA levels: significantly reduced
[2]; pretreatment subconj. + IP, 3 days p.i.
  histopathology: cellular infiltrate, corneal destruction: markedly reduced cellular infiltrate; also recorded: reduced corneal destruction and infiltrate
[2]; pretreatment subconj. + IP, 5 days p.i.
  histopathology: cellular infiltrate, damage to the cornea: markedly reduced cellular infiltrate; also recorded: reduced damage to the cornea and a decreased cellular infiltrate
[2]; topical GLY from 6 hours p.i. and days 1-4 twice each day, 5 days p.i.
  histopathology: damage to the cornea, cellular infiltrate: reduced damage to the cornea and a decreased cellular infiltrate
